Key:
CCRF-CEM = format: cell-based; conditions: CCRF-CEM; 10^−5 molar
HL-60(TB) = format: cell-based; conditions: HL-60(TB); 10^−5 molar
K-562 = format: cell-based; conditions: K-562; 10^−5 molar
MOLT-4 = format: cell-based; conditions: MOLT-4; 10^−5 molar
RPMI-8226 = format: cell-based; conditions: RPMI-8226; 10^−5 molar
SR = format: cell-based; conditions: SR; 10^−5 molar
A549/ATCC = format: cell-based; conditions: A549/ATCC; 10^−5 molar
HOP-62 = format: cell-based; conditions: HOP-62; 10^−5 molar
NCI-H226 = format: cell-based; conditions: NCI-H226; 10^−5 molar
NCI-H23 = format: cell-based; conditions: NCI-H23; 10^−5 molar
NCI-H460 = format: cell-based; conditions: NCI-H460; 10^−5 molar
NCI-H522 = format: cell-based; conditions: NCI-H522; 10^−5 molar
COLO 205 = format: cell-based; conditions: COLO 205; 10^−5 molar
HCC-2998 = format: cell-based; conditions: HCC-2998; 10^−5 molar
HCT-116 = format: cell-based; conditions: HCT-116; 10^−5 molar
HCT-15 = format: cell-based; conditions: HCT-15; 10^−5 molar
HT29 = format: cell-based; conditions: HT29; 10^−5 molar
KM12 = assay: cells; format: cell-based; conditions: KM12; 10^−5 molar
SW-620 = format: cell-based; conditions: SW-620; 10^−5 molar
SF-268 = format: cell-based; conditions: SF-268; 10^−5 molar
SF-295 = format: cell-based; conditions: SF-295; 10^−5 molar
SF-539 = format: cell-based; conditions: SF-539; 10^−5 molar
SNB-19 = format: cell-based; conditions: SNB-19; 10^−5 molar
SNB-75 = format: cell-based; conditions: SNB-75; 10^−5 molar
MALME-3M = format: cell-based; conditions: MALME-3M; 10^−5 molar
M14 = format: cell-based; conditions: M14; 10^−5 molar
MDA-MB-435 = format: cell-based; conditions: MDA-MB-435; 10^−5 molar
SK-MEL-28 = format: cell-based; conditions: SK-MEL-28; 10^−5 molar
SK-MEL-5 = format: cell-based; conditions: SK-MEL-5; 10^−5 molar
UACC-257 = format: cell-based; conditions: UACC-257; 10^−5 molar
UACC-62 = format: cell-based; conditions: UACC-62; 10^−5 molar
IGROV1 = format: cell-based; conditions: IGROV1; 10^−5 molar
OVCAR-3 = format: cell-based; conditions: OVCAR-3; 10^−5 molar
OVCAR-4 = format: cell-based; conditions: OVCAR-4; 10^−5 molar
OVCAR-5 = format: cell-based; conditions: OVCAR-5; 10^−5 molar
OVCAR-8 = format: cell-based; conditions: OVCAR-8; 10^−5 molar
NCI/ADR-RES = format: cell-based; conditions: NCI/ADR-RES; 10^−5 molar
SK-OV-3 = format: cell-based; conditions: SK-OV-3; 10^−5 molar
786-0 = format: cell-based; conditions: 786-0; 10^−5 molar
A498 = format: cell-based; conditions: A498; 10^−5 molar
ACHN = format: cell-based; conditions: ACHN; 10^−5 molar
CAKI-1 = format: cell-based; conditions: CAKI-1; 10^−5 molar
RXF 393 = format: cell-based; conditions: RXF 393; 10^−5 molar
SN12C = format: cell-based; conditions: SN12C; 10^−5 molar
TK-10 = format: cell-based; conditions: TK-10; 10^−5 molar
UO-31 = format: cell-based; conditions: UO-31; 10^−5 molar
PC-3 = format: cell-based; conditions: PC-3; 10^−5 molar
DU-145 = format: cell-based; conditions: DU-145; 10^−5 molar
MCF7 = format: cell-based; conditions: MCF7; 10^−5 molar
MDA-MB-231/ATCC = format: cell-based; conditions: MDA-MB-231/ATCC; 10^−5 molar
HS 578T = format: cell-based; conditions: HS 578T; 10^−5 molar
BT-549 = format: cell-based; conditions: BT-549; 10^−5 molar
T-47D = format: cell-based; conditions: T-47D; 10^−5 molar
MDA-MB-486 = format: cell-based; conditions: MDA-MB-486; 10^−5 molar
60 cancer cell lines = assay: NCI 60-cell screen, SRB, whole panel (mean, delta, range); format: cell-based; conditions: 10^−5 molar

## O=c1c2cc(Cl)ccc2sc2c(NC3CCCCC3)nc3ccccc3c12 [Compound N21, 10-Chloro-6-(cyclohexylamino)-12H-thiochromeno[2,3-c]quinolin-12-one]
CCRF-CEM
  Growth percent: 92.23%
HL-60(TB)
  Growth percent: 107.06%
K-562
  Growth percent: 102.86%
MOLT-4
  Growth percent: 92.42%
RPMI-8226
  Growth percent: 94.56%
SR
  Growth percent: 85.52%
A549/ATCC
  Growth percent: 85.28%
HOP-62
  Growth percent: 101.46%
NCI-H226
  Growth percent: 93.26%
NCI-H23
  Growth percent: 91.11%
NCI-H460
  Growth percent: 91.29%
NCI-H522
  Growth percent: 83.95%
COLO 205
  Growth percent: 103.96%
HCC-2998
  Growth percent: 109.83%
HCT-116
  Growth percent: 65.37%
HCT-15
  Growth percent: 91.71%
HT29
  Growth percent: 105.11%
KM12
  Growth percent: 112.90%
SW-620
  Growth percent: 87.98%
SF-268
  Growth percent: 92.06%
SF-295
  Growth percent: 92.22%
SF-539
  Growth percent: 91.20%
SNB-19
  Growth percent: 106.72%
SNB-75
  Growth percent: 81.91%
MALME-3M
  Growth percent: 93.42%
M14
  Growth percent: 103.41%
MDA-MB-435
  Growth percent: 106.98%
SK-MEL-28
  Growth percent: 101.79%
SK-MEL-5
  Growth percent: 97.00%
UACC-257
  Growth percent: 103.68%
UACC-62
  Growth percent: 93.23%
IGROV1
  Growth percent: 83.31%
OVCAR-3
  Growth percent: 91.85%
OVCAR-4
  Growth percent: 72.10%
OVCAR-5
  Growth percent: 98.06%
OVCAR-8
  Growth percent: 74.91%
NCI/ADR-RES
  Growth percent: 95.91%
SK-OV-3
  Growth percent: 94.54%
786-0
  Growth percent: 97.69%
A498
  Growth percent: 93.00%
ACHN
  Growth percent: 97.31%
CAKI-1
  Growth percent: 72.76%
RXF 393
  Growth percent: 97.03%
SN12C
  Growth percent: 89.12%
TK-10
  Growth percent: 127.96%
UO-31
  Growth percent: 72.52%
PC-3
  Growth percent: 75.02%
DU-145
  Growth percent: 104.25%
MCF7
  Growth percent: 46.14%
MDA-MB-231/ATCC
  Growth percent: 77.17%
HS 578T
  Growth percent: 94.22%
BT-549
  Growth percent: 105.53%
T-47D
  Growth percent: 72.43%
MDA-MB-486
  Growth percent: 108.92%
60 cancer cell lines; delta over panel
  Growth percent, Delta: 46.48%
60 cancer cell lines; mean over panel
  Growth percent, Mean: 92.62%
60 cancer cell lines; range over panel
  Growth percent, Range: 81.82%
other
  melting point: 196 to 197 °C
